Laboratory results taken from US20260272944A1, “PYRIDO[3,4-D]PYRIMIDINONE AND PYRIMDLLNE ARYL HYDROCARBON RECEPTOR ANTAGONISTS AND USES THEREOF” (ALLIANTHERA (SUZHOU) BIOPHARMACEUTICAL CO., LTD., priority 2023, published 2026).

Target: T1, Human Aryl Hydrocarbon Receptor (AhR) (Homo sapiens, UniProt P35869)
T1 construct: purchased INDIGO Bioscience IB06001-32; host or cells: AhR Reporter Cell (the kit's proprietary reporter cells)
T1 sequence (P35869 11-848): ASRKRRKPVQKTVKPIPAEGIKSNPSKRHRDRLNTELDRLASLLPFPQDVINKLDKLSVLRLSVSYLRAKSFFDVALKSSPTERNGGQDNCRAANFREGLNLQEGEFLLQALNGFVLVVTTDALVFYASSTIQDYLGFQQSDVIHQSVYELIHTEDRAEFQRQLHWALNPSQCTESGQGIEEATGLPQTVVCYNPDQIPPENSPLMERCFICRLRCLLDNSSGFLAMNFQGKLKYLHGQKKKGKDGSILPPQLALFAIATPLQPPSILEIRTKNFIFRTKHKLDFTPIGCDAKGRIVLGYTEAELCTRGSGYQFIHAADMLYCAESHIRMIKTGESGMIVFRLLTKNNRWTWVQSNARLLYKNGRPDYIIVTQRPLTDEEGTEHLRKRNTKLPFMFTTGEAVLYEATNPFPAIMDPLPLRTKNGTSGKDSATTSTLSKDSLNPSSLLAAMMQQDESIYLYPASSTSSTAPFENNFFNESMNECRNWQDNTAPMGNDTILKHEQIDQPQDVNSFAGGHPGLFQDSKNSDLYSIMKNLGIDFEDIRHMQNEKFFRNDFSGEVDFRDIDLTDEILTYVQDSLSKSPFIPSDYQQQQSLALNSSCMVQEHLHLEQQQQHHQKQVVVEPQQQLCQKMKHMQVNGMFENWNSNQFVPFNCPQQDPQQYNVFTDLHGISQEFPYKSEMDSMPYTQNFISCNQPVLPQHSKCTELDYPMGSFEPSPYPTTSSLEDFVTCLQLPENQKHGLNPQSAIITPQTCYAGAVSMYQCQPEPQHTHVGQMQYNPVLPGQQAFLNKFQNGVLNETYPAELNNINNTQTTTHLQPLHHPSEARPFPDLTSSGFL
Assay: AhR reporter assay (Human Aryl Hydrocarbon Receptor (AhR) Reporter Assay System, INDIGO Bioscience)
Format: cell-based
Conditions: AHR inhibition at 10 nM test compound; AhR Reporter Cells activated with 200 μM kynurenic acid, 24 hours; firefly luciferase; normalized by positive and negative controls
Method: The AhR reporter assay was performed following the protocol of the Human Aryl Hydrocarbon Receptor (AhR) Reporter Assay System (INDIGO Bioscience, #IB06001-32). AhR Reporter Cell was thawed and pre-incubated in Cell Recovery Medium (CRM) for 6 hours. The media was then removed and the cells were incubated with Compound Screening Medium (CSM) supplemented with 200 μM kynurenic acid for 24 hours in the absence (negative control) or presence of 10 nM test compounds. For positive inhibition control, cells activated with 200 μM kynurenic acid were incubated in the presence of literature AHR antagonists; alternatively un-activated cells were used as positive inhibition control. Following 24 hours incubation, the media was removed and Luciferase Detection Reagent (LDR) added. The firefly luciferase activity was quantified using a plate reader. Results were normalized by positive and negative controls.
The results of AHR inhibition at 10 nM for compounds as disclosed herein is reported in the below table.

Row | Compound | inhibition at 0.01 µM [%]
1 | C[C@@H](CO)NC(=O)c1cc(N2CCN(c3ccc(F)cc3)C[C@@H]2C)nc(-c2cnn(C)c2)n1 [Compound 77] | 4
2 | C[C@@H](CO)NC(=O)c1cc(N2Cc3cccc(F)c3C2)nc(-c2cnn(C)c2)n1 [Compound 88] | 21
3 | C[C@@H](CO)NC(=O)c1cc(-c2ccc(N3CCOCC3)nc2)nc(-c2cnn(C)c2)n1 [Compound 90] | 1
4 | C[C@@H](CO)NC(=O)c1cc(-c2ccc(N3CCN(S(C)(=O)=O)CC3)cc2)nc(-c2cnn(C)c2)n1 [Compound 91] | 7
5 | C[C@@H](CO)NC(=O)c1cc(N2Cc3ccc(F)cc3C2)nc(-c2cnn(C)c2)n1 [Compound 93] | 99
6 | Cc1cc(-c2cc(C(=O)N[C@@H](C)CO)nc(-c3cnn(C)c3)n2)ccc1N1CCOCC1 [Compound 96] | 10
7 | C[C@@H](CO)NC(=O)c1cc(-c2ccc(NC(=O)CN3CCOCC3)cc2)nc(-c2cnn(C)c2)n1 [Compound 98] | 5
8 | C[C@@H](CO)NC(=O)c1cc(-c2ccc(C(=O)N3CCC(N)C3)cc2)nc(-c2cnn(C)c2)n1 (stereo partly drawn) [Compound 105] | -3
9 | C[C@@H](CO)NC(=O)c1cc(-c2ccc(-c3ccc(=O)n(C)c3)cc2)nc(-c2cnn(C)c2)n1 [Compound 112] | 10
10 | C[C@@H](CO)NC(=O)c1cc(N2Cc3cccnc3C2)nc(-c2cnn(C)c2)n1 [Compound 117] | 46
11 | C[C@@H](CO)n1cnc2c(-c3cnn(C)c3)nc(-c3ccc(-c4cnc(N)nc4)nc3)cc2c1=O [Compound 119] | 2
12 | C[C@@H](CO)n1cnc2c(-c3cnn(C)c3)nc(-c3ccc(C(=O)N4CCN(S(C)(=O)=O)CC4)cc3)cc2c1=O [Compound 120] | -10
13 | C[C@@H](CO)n1cnc2c(-c3cnn(C)c3)nc(N3CCN(c4ncccn4)CC3)cc2c1=O [Compound 121] | 4
14 | C[C@@H](CO)n1cnc2c(-c3cnn(C)c3)nc(N3CCN(c4ccc(F)cc4F)CC3)cc2c1=O [Compound 122] | 46
15 | C[C@@H](CO)n1cnc2c(-c3cnn(C)c3)nc(N3CCN(c4ccccc4)CC3)cc2c1=O [Compound 123] | 91
16 | C[C@@H](CO)n1cnc2c(-c3cnn(C)c3)nc(N3Cc4cccnc4C3)cc2c1=O [Compound 124] | 77
17 | C[C@H](CO)NC(=O)c1cc(N2Cc3ccccc3C2)nc(-c2cnn(C)c2)n1 [Compound 125] | 23
18 | C[C@H](NC(=O)c1cc(N2Cc3ccccc3C2)nc(-c2cnn(C)c2)n1)C(=O)O [Compound 126] | 5
19 | C[C@@H](CNS(=O)(=O)C1CC1)NC(=O)c1cc(N2Cc3ccccc3C2)nc(-c2cnn(C)c2)n1 [Compound 127] | 52
20 | C[C@@H](CO)n1cnc2c(-n3nc(N)ccc3=O)nc(-c3cncc(F)c3)cc2c1=O [Compound 128] | 4
21 | C[C@@H](CO)n1cnc2c(-n3cncc3C3CC3)nc(-c3cncc(F)c3)cc2c1=O [Compound 129] | 7
